Laboratory results from patent US11524958B2, “Tricyclic compound as CRTH2 inhibitor” (CHIA TAI TIANQING PHARMACEUTICAL GROUP CO., LTD., priority 2016, dated 2022).

target: T1, CRTH2 receptor (Homo sapiens, UniProt Q9Y5Y4); test: PathHunter CHO-K1 CRTH2 β-arrestin assay (DiscoverX), antagonism of PGD2; type: cell-based; conditions: PathHunter CHO-K1 CRTH2 β-arrestin cells; compound 30 min, then EC80 agonist (PGD2) 90 min, 37° C.; chemiluminescent signal
T1 construct: host or cells: CHO-K1 (PathHunter β-arrestin line)
T1 sequence (Q9Y5Y4 1-395): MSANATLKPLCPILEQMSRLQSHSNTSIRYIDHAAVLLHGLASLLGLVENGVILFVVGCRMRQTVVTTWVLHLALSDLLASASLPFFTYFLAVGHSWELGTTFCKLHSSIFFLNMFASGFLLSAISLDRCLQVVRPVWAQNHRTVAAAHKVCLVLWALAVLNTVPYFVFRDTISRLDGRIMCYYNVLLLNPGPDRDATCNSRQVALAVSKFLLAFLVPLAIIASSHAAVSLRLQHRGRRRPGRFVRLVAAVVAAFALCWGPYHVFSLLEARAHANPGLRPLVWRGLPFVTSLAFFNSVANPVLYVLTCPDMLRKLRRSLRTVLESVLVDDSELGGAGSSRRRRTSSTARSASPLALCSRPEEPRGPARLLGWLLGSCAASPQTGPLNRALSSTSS
Procedure: DiscoverX Corporation in the U.S was entrusted to complete this experiment by β-arrestin assay. The experimental method and results were listed below: PathHunter® CHO-K1 CRTH2 β-arrestin cells (DiscoverX, catalogue number 93-0291C2) grew under standard conditions, and were inoculated into a white-wall 384-well microplate at a density of 5,000 cells/well. 20 μL of Cell Plating Reagent 1 was used in each well. Before the test, the cells were incubated overnight at 37° C./5% CO2. A test compound was serially diluted in DMSO with a dilution factor of 3-fold to give 8 concentrations of the test compound. Shortly before the test, the serially diluted test compound was further diluted with the test buffer to 5 times of the test concentration. 5 μL of the further diluted test compound was added to the cells, and the cells were incubated for 30 min at 37° C. The concentration of the solvent was 1%. 5 μL of 6× EC80 agonist (PGD2) buffer was added to the cells, and the cells were incubated for 90 min at 37° C. Measured signals were generated by one-time addition of 15 μL (50% v/v) of PathHunter detection mixture reagent and subsequent one-hour incubation. The microplate was read through the chemiluminescent signals of PerkinElmer Envision™ reader. Biological activity of the test compound was analyzed by CBIS data analysis suite (ChemInnovation, CA), and was denoted as IC50 value.

Row | IC50 [µM] | SMILES
1 | > 1 | CS(=O)(=O)c1ccc(Cc2c3n(c4ccccc24)CC(C(=O)O)CC3)c(C(F)(F)F)c1 (single isomer, unassigned) [Example 16 peak1]
2 | < 0.1 | CS(=O)(=O)c1ccc(Cc2c3n(c4ccccc24)CC(C(=O)O)CC3)c(C(F)(F)F)c1 (single isomer, unassigned) [Example 16 peak2]
3 | < 0.1 | CS(=O)(=O)c1ccc(Cc2c3n(c4ccc(Cl)cc24)CC(C(=O)O)CC3)c(C(F)(F)F)c1 (single isomer, unassigned) [Example 22 peak1]
4 | > 1 | CS(=O)(=O)c1ccc(Cc2c3n(c4ccc(Cl)cc24)CC(C(=O)O)CC3)c(C(F)(F)F)c1 (single isomer, unassigned) [Example 22 peak2]
5 | 0.1 to 1 | CS(=O)(=O)c1ccc(Cc2c3n(c4ccc(F)cc24)CC(C(=O)O)CC3)c(C(F)(F)F)c1 (single isomer, unassigned) [Example 25 peak1]
6 | < 0.1 | CS(=O)(=O)c1ccc(Cc2c3n(c4ccc(F)cc24)CC(C(=O)O)CC3)c(C(F)(F)F)c1 (single isomer, unassigned) [Example 25 peak2]
7 | > 1 | CS(=O)(=O)c1ccc(Cc2c3n(c4ccccc24)C(C(=O)O)CCC3)cc1 (stereo not shown) [Example 1]
8 | 0.1 to 1 | O=C(O)C1CCCc2c(Cc3cccnc3S(=O)(=O)c3ccccc3)c3ccccc3n21 (stereo not shown) [Example 2]
9 | 0.1 to 1 | CS(=O)(=O)c1ccc(Cc2c3n(c4ccccc24)C(C(=O)O)CCC3)c(C(F)(F)F)c1 (stereo not shown) [Example 6]
10 | > 1 | CS(=O)(=O)c1ccc(Cc2c3n(c4ccccc24)C(CC(=O)O)CCC3)cc1 (stereo not shown) [Example 7]
11 | > 1 | CS(=O)(=O)c1ccc(Cc2c3n(c4ccccc24)C(CC(=O)O)CCC3)c(C(F)(F)F)c1 (stereo not shown) [Example 8]
12 | > 1 | CS(=O)(=O)c1ccc(Cc2c3n(c4ccccc24)CC(CC(=O)O)CC3)cc1 (stereo not shown) [Example 9]
13 | > 1 | O=C(O)CC1CCc2c(Cc3ccc4ccccc4n3)c3ccccc3n2C1 (stereo not shown) [Example 10]
14 | > 1 | O=C(O)CC1CCc2c(Cc3cccnc3S(=O)(=O)c3ccccc3)c3ccccc3n2C1 (stereo not shown) [Example 11]
15 | > 1 | CS(=O)(=O)c1ccc(Cc2c3n(c4ccccc24)CC(CC(=O)O)CC3)c(C(F)(F)F)c1 (stereo not shown) [Example 15]
16 | < 0.1 | CS(=O)(=O)c1ccc(Cc2c3n(c4ccccc24)CC(C(=O)O)CC3)c(C(F)(F)F)c1 (stereo not shown) [Example 16]
17 | 0.1 to 1 | O=C(O)C1CCc2c(Cc3cccnc3S(=O)(=O)c3ccc(Cl)cc3)c3ccccc3n2C1 (stereo not shown) [Example 17]
18 | > 1 | CC1(C(=O)O)CCc2c(Cc3ccc(S(C)(=O)=O)cc3C(F)(F)F)c3ccccc3n2C1 (stereo not shown) [Example 18]
19 | > 1 | CC1(C(=O)O)CCc2c(Cc3ccc(C(F)(F)F)nc3)c3ccccc3n2C1 (stereo not shown) [Example 20]
20 | > 1 | CC1(C(=O)O)CCc2c(Cc3ccc(S(C)(=O)=O)cc3F)c3ccccc3n2C1 (stereo not shown) [Example 21]
21 | < 0.1 | CS(=O)(=O)c1ccc(Cc2c3n(c4ccc(Cl)cc24)CC(C(=O)O)CC3)c(C(F)(F)F)c1 (stereo not shown) [Example 22]
22 | 0.1 to 1 | CS(=O)(=O)c1ccc(Cc2c3n(c4ccc(Cl)cc24)CC(C(=O)O)CC3)c(F)c1 (stereo not shown) [Example 23]

Row | IC50 [µM] | SMILES
23 | > 1 | O=C(O)C1CCc2c(Cc3ccc4c(c3)CCS4(=O)=O)c3cc(Cl)ccc3n2C1 (stereo not shown) [Example 24]
24 | < 0.1 | CS(=O)(=O)c1ccc(Cc2c3n(c4ccc(F)cc24)CC(C(=O)O)CC3)c(C(F)(F)F)c1 (stereo not shown) [Example 25]
25 | 0.1 to 1 | CS(=O)(=O)c1ccc(Cc2c3n(c4ccc(F)cc24)CC(C(=O)O)CC3)c(F)c1 (stereo not shown) [Example 26]
26 | > 1 | O=C(O)C1CCc2c(Cc3ccc4ccccc4n3)c3cc(F)ccc3n2C1 (stereo not shown) [Example 27]
27 | > 1 | O=C(O)C1CCc2c(Cc3ccc4c(c3)CCS4(=O)=O)c3cc(F)ccc3n2C1 (stereo not shown) [Example 28]
28 | > 1 | CS(=O)(=O)c1ccc(Cc2c3ccccc3n3cc(C(=O)O)ncc23)cc1 [Example 29]
29 | > 1 | CS(=O)(=O)c1ccc(Cc2c3ccccc3n3cc(C(=O)O)ncc23)cn1 [Example 30]
30 | > 1 | CS(=O)(=O)c1ccc(Cc2c3ccccc3n3cc(C(=O)O)ncc23)c(C(F)(F)F)c1 [Example 31]
31 | 0.1 to 1 | CS(=O)(=O)c1ccc(Cc2c3n(c4ccccc24)CC(C(=O)O)C3)c(C(F)(F)F)c1 (stereo not shown) [Example 32]
32 | > 1 | O=C(O)C1CCc2c(Cc3ccc4c(c3)C(F)C(F)(F)S4(=O)=O)c3cc(F)ccc3n2C1 (stereo not shown) [Example 33]
33 | < 0.1 | COc1ccc2c(c1)c(Cc1ccc(S(C)(=O)=O)cc1C(F)(F)F)c1n2CC(C(=O)O)CC1 (stereo not shown) [Example 34]
34 | < 0.1 | CS(=O)(=O)c1ccc(Cc2c3n(c4ccc(OC(F)F)cc24)CC(C(=O)O)CC3)c(C(F)(F)F)c1 (stereo not shown) [Example 35]
35 | > 1 | O=C(O)C1CCc2c(Cc3cc4c(cc3C(F)(F)F)S(=O)(=O)CC4)c3cc(F)ccc3n2C1 (stereo not shown) [Example 36]
36 | > 1 | O=C(O)C1CCc2c(Cc3cc4c(cc3C(F)(F)F)S(=O)(=O)CC4)c3cc(Cl)ccc3n2C1 (stereo not shown) [Example 37]
37 | > 1 | O=C(O)C1CCc2c(Cc3cccc4c3CCS4(=O)=O)c3cc(F)ccc3n2C1 (stereo not shown) [Example 38]
38 | > 1 | CS(=O)(=O)c1ccc(Cc2c3n(c4ccccc24)CC(C(=O)O)CC3)nc1 (stereo not shown) [Example 39]
39 | > 1 | COc1cc(C(F)(F)F)c(Cc2c3n(c4ccccc24)CC(C(=O)O)CC3)cn1 (stereo not shown) [Example 40]
40 | > 1 | CS(=O)(=O)c1ccc(Cc2c3n(c4ccccc24)CC(C(=O)O)CC3)cn1 (stereo not shown) [Example 41]
41 | > 1 | CS(=O)(=O)c1ccc(Cc2c3n(c4ncccc24)CC(C(=O)O)CC3)c(C(F)(F)F)c1 (stereo not shown) [Example 42]
42 | > 1 | O=C(O)C1CCc2c(Cc3ccc4c(c3)C(F)(F)CCS4(=O)=O)c3cc(F)ccc3n2C1 (stereo not shown) [Example 43]
43 | > 1 | O=C(O)C1CCc2c(Cc3ccc4c(c3)S(=O)(=O)CC4)c3cc(F)ccc3n2C1 (stereo not shown) [Example 44]
